Reference: ChEMBL document CHEMBL1123241, “Alkyl-substituted thiolo-, thiono-, and dithio-gamma-butyrolactones: new classes of convulsant and anticonvulsant agents” (1986)

How the values were obtained:
Type in all cases: functional
[1] = tested on: Mus musculus; experiment: Compound was evaluated for anticonvulsant activity against PTZ-induced tonic seizures at the 62.5 mg/kg dose; 4/4
[2] = tested on: Mus musculus; experiment: Compound was evaluated for anticonvulsant activity against PTZ-induced tonic seizures at the 250 mg/kg dose; 4/4
[3] = tested on: Mus musculus; experiment: Compound was evaluated for anticonvulsant activity against PTZ-induced clonic seizures at 62.5 mg/kg dose; 4/4
[4] = tested on: Mus musculus; experiment: Compound was evaluated for anticonvulsant activity against PTZ-induced clonic seizures at the 125 mg/kg dose; 4/4
[5] = tested on: Mus musculus; experiment: Compound was evaluated for anticonvulsant activity against PTZ-induced tonic seizures at the 125 mg/kg dose; 4/4
[6] = tested on: Mus musculus; experiment: Compound was evaluated for anticonvulsant activity against PTZ-induced clonic seizures at the 250 mg/kg dose; 4/4
[7] = tested on: Mus musculus; experiment: Compound was evaluated for anticonvulsant activity against PTZ-induced tonic seizures at the 250 mg/kg dose; 3/5
[8] = tested on: Mus musculus; experiment: Compound was evaluated for anticonvulsant activity against PTZ-induced clonic seizures at the 250 mg/kg dose; 3/5
[9] = tested on: Mus musculus; experiment: Compound was evaluated for anticonvulsant activity against PTZ-induced clonic seizures at the 100 mg/kg dose; 5/5
[10] = tested on: Mus musculus; experiment: Compound was evaluated for anticonvulsant activity against PTZ-induced clonic seizures at the 500 mg/kg dose; 3/5
[11] = tested on: Mus musculus; experiment: Compound was evaluated for anticonvulsant activity against PTZ-induced tonic seizures at the 100 mg/kg dose; 5/5
[12] = tested on: Mus musculus; experiment: Compound was evaluated for anticonvulsant activity against PTZ-induced tonic seizures at the 500 mg/kg dose; 1/5

CCC1(C)CCOC1=O (configuration not stated)
Mean time to seizure [1]: 1015 s | Mean time to seizure [2]: 844 s | Mean time to seizure [3]: 150 s | Mean time to seizure [4]: 365 s | Mean time to seizure [5]: 1078 s | Mean time to seizure [6]: 163 s

CCC1(C)CCOC1=S (configuration not stated)
Mean time to seizure [7]: 341 s | Mean time to seizure [8]: 155 s

CCC1(C)CCSC1=S (configuration not stated)
Mean time to seizure [9]: 87 s | Mean time to seizure [10]: 218 s | Mean time to seizure [11]: 728 s | Mean time to seizure [12]: 1200 s
